The record followed here is PubChem BioAssay (NCI).

Common to all, as to assay: inhibition of tumour cell growth, NCI panel, 48 h
Assay [1] has as its system MOLT-4 leukemia.
Assay [2] has as its system UO-31 renal.
The subject of assay [3] is COLO 205 colon.
In assay [4] the test system is EKVX NSCLC.
For assay [5], the system named is TK-10 renal.
Assay [6] concerns HCT-15 colon.
Assay [7] concerns HT29 colon.
The test system of assay [8] is A549 NSCLC.
In assay [9] the test system is UACC-62 melanoma.
Assay [10] concerns SK-MEL-28 melanoma.

The structures appear in SMILES notation.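 Assay format: 96-well plates, 48-hour exposure. Here, GI50 denotes the concentration required for 50% inhibition of growth. At the TGI there is no net growth.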 Where only a bound is given, the exact number is not on record here.

`CC(=O)Nc1ccc(-c2csc(Nc3cccc(-c4csc(C)n4)c3)n2)cc1`: the TGI in [1] was more than 50 µM; in [2], 22.8 µM; in assay [3] it was more than 50 µM; in assay [4] it was 22.2 µM; in assay [5], more than 50 µM; in [6], more than 27.4 µM. Besides, the TGI in assay [7] is more than 50 µM; in [8] it was 18.9 µM; in [9], 1.51 µM; in assay [10], more than 37.3 µM. In addition, the GI50 in assay [2] was 6.73 µM; in [3], 1 µM; in [4], 4.99 µM; in [5] it was 6.03 µM; in [6] it was 0.289 µM; in [7] it was 2.38 µM. The GI50 in assay [8] is 1.21 µM; in [9], 0.139 µM; in assay [10], 7.32 µM.
As to `Cc1c(N(C)C)ccc2c(=O)c3cccc(CC(=O)O)c3oc12`, the TGI in [1], in [2], in [3], in assay [4], in assay [5] and in assay [6] was more than 100 µM in each case. In addition, the TGI in assay [7], in assay [8], in assay [9] and in [10] was more than 100 µM throughout.
For `CN(C)CC[C@H](CSc1ccccc1)Nc1ccc(S(=O)(=O)NC(=O)c2ccc(N3CCN(Cc4ccccc4-c4ccc(Cl)cc4)CC3)cc2)cc1[N+](=O)[O-]`, the GI50 in assay [1] was 0.392 µM; in [2], 3.53 µM; in assay [3], 2.12 µM; in assay [4] it was 3.32 µM; in assay [5], 2.44 µM; in assay [6], 5.09 µM. Besides, the GI50 in assay [7] was 2.17 µM; in assay [8] it was 3.73 µM; in assay [9], 3.51 µM; in [10], 5.73 µM. Also, the TGI in [1] is 2.64 µM; in assay [2], 27.6 µM; in assay [3] it was 4.7 µM; in assay [4] it was more than 100 µM; in assay [5], 5.37 µM; in [6] it was more than 100 µM. The TGI was 5.02 µM in assay [7], more than 100 µM in assay [8], 20 µM in assay [9] and more than 100 µM in assay [10].
In the case of `Clc1cc2c(c(CSc3nc4ccccc4n4cccc34)c1)OCOC2`, the GI50 in [1] was more than 100 µM; in assay [2], more than 100 µM; in [3] it was more than 100 µM; in assay [4] it was 29.6 µM; in assay [5] it was 3.49 µM; in [6] it was 2.7 µM. The GI50 in [7] is more than 100 µM; in assay [8], more than 100 µM; in [9], 76.5 µM; in [10], more than 100 µM. Also, the TGI was more than 100 µM in [1]; more than 100 µM in [2]; more than 100 µM in [3]; more than 100 µM in [4]; 60.3 µM in assay [5]; more than 100 µM in assay [6]. Further, the TGI in assay [7], in [8], in assay [9] and in [10] was more than 100 µM throughout.
For the compound `CCN(CC)CCNc1nc(N)c(C#N)c(C#N)c1C#N`, the TGI in [1], in assay [2], in [3], in [4], in assay [5] and in assay [6] was more than 10 µM in each case. Also, the TGI in [7], in assay [8], in assay [9] and in assay [10] was more than 10 µM in each case.
With `O=C(Cc1ccc(F)c(Cl)c1)Nc1cc(C2(C(F)(F)F)CC2)nn1CC1CCCCC1`, the GI50 in assay [1] was 3.37 µM; in assay [2], 2.9 µM; in [3] it was 2.59 µM; in [4], 2.55 µM; in [5], 4.78 µM; in assay [6] it was 3.87 µM. Besides, the GI50 was 3.96 µM in assay [7], 4.6 µM in [8], 3.37 µM in assay [9] and 4.82 µM in [10]. For the same compound, the TGI was 9.57 µM in assay [1]; 9.65 µM in assay [2]; 5.41 µM in assay [3]; 12.6 µM in assay [4]; more than 15 µM in [5]; more than 15 µM in [6]. Besides, the TGI was more than 15 µM in assay [7], more than 15 µM in assay [8], 11.5 µM in assay [9] and more than 15 µM in assay [10].
For `COc1ccc2nc3ccccc3c(NCc3ccc(F)cc3)c2c1`, the GI50 was 1.66 µM in assay [1]; 0.962 µM in assay [2]; 1.11 µM in [3]; 2.16 µM in assay [4]; 2.89 µM in [5]; 1.54 µM in [6]. For the same compound, the GI50 is 1.48 µM in [7], 1.99 µM in assay [8], 3.48 µM in assay [9] and 2.9 µM in assay [10]. The TGI was 10.4 µM in assay [1]; 3.96 µM in assay [2]; 2.78 µM in assay [3]; 7.95 µM in assay [4]; 10.3 µM in [5]; 5.23 µM in assay [6]. Further, the TGI in assay [7] was found to be 5.19 µM; in assay [8], 9.89 µM; in assay [9] it was 10.2 µM; in [10], 9.27 µM.
As to `COC(=O)/C(C#N)=C1\N=NNN1c1ccc(OC)cc1`, the TGI in assay [1], in [2], in assay [3], in assay [4], in assay [5] and in assay [6] was more than 100 µM in each case. In addition, the TGI in assay [7], in assay [8], in assay [9] and in [10] was more than 100 µM throughout.
